Measured values: US10300155B2, “Alpha-synuclein ligands” (Washington University, priority 2015, dated 2019)
Values joined by “and” are separate entries in the source; they are usually repeats but may differ in a detail not shown here. Equal entries are not always repeated. Where two headings read alike, the source gives them in different places.

Key:
α-synuclein fibrils [1] = target: T1, α-synuclein fibrils (Homo sapiens, UniProt P37840); test: ThT competitive assay for α-synuclein fibrils (Table 1); type: binding; conditions: for EC50: α-synuclein fibrils
T1 construct: made in house; host or cells: E. coli BL21(DE3)RIL
Method in brief: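 Competition against ThT binding to recombinant (E. coli) human α-synuclein fibrils, pelleted from a 72 hour fibril reaction and quantified by BCA. Mixtures incubated 60 minutes at room temperature with shaking; ThT fluorescence read. Ki derived from EC50 via Cheng-Prusoff using the ThT saturation Kd.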

α-synuclein fibrils [2] = target: T1, α-synuclein fibrils; test: Thioflavin T competition assay (Example 130, Table 9), α-synuclein fibrils; type: binding
Procedure: Freshly transformed BL21 colonies were inoculated into 2 L baffled flasks containing 250 ml sterilized TB (1.2% bactotryptone, 2.4% yeast extract, 0.4% glycerol, 0.17 M KH2PO4, 0.72 M K2HPO4) with 50 μg/ml ampicillin, and incubated overnight at 37° C. with shaking.
Competition assays used a fixed concentration of α-syn, Aβ, or tau fibrils (1 μM), consisting of 3 μM, 50 nM and 4 μM of ThioflavinT respectively. […] To optimize the determination of selectivity, assays for all three fibril species were set up in parallel using a common set of intermediate compound dilutions for each analog. Reactions were incubated at room temperature for 1.5 h before quantifying bound ligand as described above for the saturation binding assay. […] All data points were performed in triplicate. Nonspecific fluorescence was measured in parallel reactions containing ThioT plus each concentration of competitor but no fibrils, and these measurements were subtracted from the reactions with fibrils to yield fibril-specific fluorescence. Data were analyzed using Graphpad. Prism software (version 4.0) to obtain EC50 values by fitting the data to the equation Y=bottom+(top-bottom)/(1+10^(x−log EC50)).

tau fibrils = tau fibrils (Homo sapiens, UniProt P10636); test: ThT competitive assay for tau fibrils (Table 3); type: binding; design: made in house; host or cells: E. coli; conditions: for EC50: tau fibrils
Procedure: Tau fibril recombinant protein was produced in E. coli. Additional preparation was performed in a similar fashion to Example 115.

[3] = Biodistribution in male Balb/C mice; type: in vivo; conditions: for Biodistribution: Blood / Biodistribution: Bone / Biodistribution: Brain / Biodistribution: Fat / Biodistribution: Heart / Biodistribution: Kidney / Biodistribution: Liver / Biodistribution: Lung / Biodistribution: Muscle / Biodistribution: Pancreas / Biodistribution: Spleen: tail vein, mean ± SD, n = 4
Procedure: For the biodistribution studies, 100˜130 μCi of [^11C] TZ-20-35 in ˜100 μL of 10% ethanol/saline solution (v/v) was injected via the tail vein into mature male Balb/C mice (19-24 g) under anesthesia (2.5% isoflurane in oxygen at a flow rate of 1 mL/min). A group of at least four […] were used for each time point. […] The whole brain was quickly harvested. At the same time, samples of blood, heart, lung, liver, spleen, pancreas, kidney, muscle, fat, and tail were dissected. All the tissue samples were collected in tared tubes and counted in an automated gamma counter (Beckman Gamma 8000 well counter) with standards, prepared by diluting the injectate. The counted tissues were then weighed, and the % ID/g was calculated (Table 4).

[4] = average, read-out: Ki (nM) α-syn (avg)
[5] = individual determinations, read-out: Ki (nM) α-syn
[6] = average, read-out: EC50 (nM) EC50 (avg)
[7] = individual determinations, read-out: EC50 (nM) EC50
[8] = average, read-out: α-synuclein EC50 (avg)
[9] = average, read-out: α-synuclein Ki (avg)
[10] = individual determinations, read-out: α-synuclein EC50
[11] = individual determinations, read-out: α-synuclein Ki

Sequence of tau fibrils (P10636 560-692 limits assumed): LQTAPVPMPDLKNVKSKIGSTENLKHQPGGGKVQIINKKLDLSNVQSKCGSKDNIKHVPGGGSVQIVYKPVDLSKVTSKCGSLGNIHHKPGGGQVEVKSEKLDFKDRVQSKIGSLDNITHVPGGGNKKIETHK

Question: What does the source list for `COc1ccc2nc(/C=C/c3ccoc3)ccc2c1` [TZ-36-54]?
Answer: Ki (α-synuclein fibrils [1]; [4]): 68.5 nM; Ki (α-synuclein fibrils [1]; [5]): 65 nM and 72 nM; EC50 (α-synuclein fibrils [1]; [6]): 178 nM; EC50 (α-synuclein fibrils [1]; [7]): 169 nM and 188 nM; EC50 (α-synuclein fibrils [2]; [8]): 178 nM; Ki (α-synuclein fibrils [2]; [9]): 68.5 nM; EC50 (α-synuclein fibrils [2]; [10]): 169 nM and 188 nM; Ki (α-synuclein fibrils [2]; [11]): 65 nM and 72 nM

Question: With `COc1cc(/C=C/c2ccc3cc(O)ccc3n2)ccn1` [TZ-36-146] as the compound, how does the Ki (α-synuclein fibrils [1]; [4]) read?
Answer: The Ki was 127 nM.

Question: What about the EC50 (α-synuclein fibrils [1]; [6]) of the same compound?
Answer: Its EC50 is 332 nM.

Question: And the EC50 (α-synuclein fibrils [2]; [8])?
Answer: The EC50 was 332 nM.

Question: And the Ki (α-synuclein fibrils [2]; [9])?
Answer: The Ki was 127 nM.

Question: What about the Ki (tau fibrils; average, read-out: Ki (nM) Tau (avg)) of the same compound?
Answer: Its Ki is 113 nM.

Question: What about the Ki (tau fibrils; individual determinations, read-out: Ki (nM) Tau) of the same compound?
Answer: The Ki was 124 nM and 102 nM.

Question: And the EC50 (tau fibrils; average, read-out: EC50m (nM) EC50 (avg))?
Answer: The EC50 was 278 nM.

Question: What about the EC50 (tau fibrils; individual determinations, read-out: EC50m (nM) EC50) of the same compound?
Answer: Its EC50 is 305 nM and 251 nM.

Question: With `O=C(Nc1ccc(OCC[18F])cc1)c1ccc(/C=C/c2ccncc2)cc1` [[^18F]TZ-23-88] as the compound, how does the “Biodistribution: Blood” value ([3]; 5 min post injection) read?
Answer: Its value is 2.50 ± 0.13 % ID/g.

Question: And the “Biodistribution: Bone” value ([3]; 5 min post injection)?
Answer: Its value is 4.07 % ID/g and 4.07 ± 0.50 % ID/g.

Question: And the “Biodistribution: Brain” value ([3]; 5 min post injection)?
Answer: Its value is 4.59 % ID/g and 4.69 ± 0.70 % ID/g.

Question: And the “Biodistribution: Fat” value ([3]; 5 min post injection)?
Answer: The value was 2.43 ± 0.42 % ID/g.

Question: What about the “Biodistribution: Heart” value ([3]; 5 min post injection) of the same compound?
Answer: The value was 4.82 ± 0.47 % ID/g.

Question: And the “Biodistribution: Kidney” value ([3]; 5 min post injection)?
Answer: Its value is 35.67 ± 1.48 % ID/g.

Question: What about the “Biodistribution: Liver” value ([3]; 5 min post injection) of the same compound?
Answer: The value was 16.30 ± 3.53 % ID/g.

Question: And the “Biodistribution: Lung” value ([3]; 5 min post injection)?
Answer: The value was 8.50 ± 0.60 % ID/g.

Question: What about the “Biodistribution: Muscle” value ([3]; 5 min post injection) of the same compound?
Answer: Its value is 2.60 ± 0.19 % ID/g.

Question: What about the “Biodistribution: Pancreas” value ([3]; 5 min post injection) of the same compound?
Answer: Its value is 4.91 ± 0.68 % ID/g.

Question: What about the “Biodistribution: Spleen” value ([3]; 5 min post injection) of the same compound?
Answer: Its value is 3.12 ± 0.12 % ID/g.

Question: What about the “Biodistribution: Blood” value ([3]; 30 min post injection) of the same compound?
Answer: The value was 2.30 ± 0.05 % ID/g.

Question: What about the “Biodistribution: Bone” value ([3]; 30 min post injection) of the same compound?
Answer: Its value is 28.50 % ID/g and 28.50 ± 2.81 % ID/g.

Question: And the “Biodistribution: Brain” value ([3]; 30 min post injection)?
Answer: The value was 4.07 % ID/g and 4.07 ± 0.21 % ID/g.

Question: What about the “Biodistribution: Fat” value ([3]; 30 min post injection) of the same compound?
Answer: The value was 1.70 ± 0.17 % ID/g.

Question: And the “Biodistribution: Heart” value ([3]; 30 min post injection)?
Answer: The value was 2.23 ± 0.06 % ID/g.

Question: What about the “Biodistribution: Kidney” value ([3]; 30 min post injection) of the same compound?
Answer: The value was 15.72 ± 1.06 % ID/g.

Question: What about the “Biodistribution: Liver” value ([3]; 30 min post injection) of the same compound?
Answer: The value was 19.56 ± 0.97 % ID/g.

Question: And the “Biodistribution: Lung” value ([3]; 30 min post injection)?
Answer: The value was 2.57 ± 0.15 % ID/g.

Question: What about the “Biodistribution: Muscle” value ([3]; 30 min post injection) of the same compound?
Answer: Its value is 1.35 ± 0.04 % ID/g.

Question: What about the “Biodistribution: Pancreas” value ([3]; 30 min post injection) of the same compound?
Answer: Its value is 3.02 ± 0.19 % ID/g.

Question: And the “Biodistribution: Spleen” value ([3]; 30 min post injection)?
Answer: Its value is 1.59 ± 0.08 % ID/g.

Question: What about the “Biodistribution: Blood” value ([3]; 60 min post injection) of the same compound?
Answer: Its value is 1.28 ± 0.06 % ID/g.

Question: What about the “Biodistribution: Bone” value ([3]; 60 min post injection) of the same compound?
Answer: Its value is 42.68 % ID/g and 42.68 ± 1.69 % ID/g.

Question: And the “Biodistribution: Brain” value ([3]; 60 min post injection)?
Answer: Its value is 3.21 % ID/g and 3.21 ± 0.14 % ID/g.

Question: And the “Biodistribution: Fat” value ([3]; 60 min post injection)?
Answer: Its value is 0.69 ± 0.10 % ID/g.

Question: What about the “Biodistribution: Heart” value ([3]; 60 min post injection) of the same compound?
Answer: Its value is 1.23 ± 0.05 % ID/g.

Question: And the “Biodistribution: Kidney” value ([3]; 60 min post injection)?
Answer: Its value is 5.59 ± 0.29 % ID/g.

Question: What about the “Biodistribution: Liver” value ([3]; 60 min post injection) of the same compound?
Answer: The value was 10.71 ± 0.80 % ID/g.

Question: What about the “Biodistribution: Lung” value ([3]; 60 min post injection) of the same compound?
Answer: The value was 1.31 ± 0.07 % ID/g.

Question: And the “Biodistribution: Muscle” value ([3]; 60 min post injection)?
Answer: The value was 0.75 ± 0.07 % ID/g.

Question: What about the “Biodistribution: Pancreas” value ([3]; 60 min post injection) of the same compound?
Answer: Its value is 1.84 ± 0.33 % ID/g.

Question: What about the “Biodistribution: Spleen” value ([3]; 60 min post injection) of the same compound?
Answer: The value was 0.90 ± 0.07 % ID/g.

Question: And the “Biodistribution: Blood” value ([3]; 120 min post injection)?
Answer: Its value is 0.70 ± 0.05 % ID/g.

Question: What about the “Biodistribution: Bone” value ([3]; 120 min post injection) of the same compound?
Answer: Its value is 49.39 % ID/g and 49.39 ± 8.21 % ID/g.

Question: What about the “Biodistribution: Brain” value ([3]; 120 min post injection) of the same compound?
Answer: The value was 2.37 % ID/g and 2.37 ± 0.14 % ID/g.

Question: And the “Biodistribution: Fat” value ([3]; 120 min post injection)?
Answer: Its value is 0.23 ± 0.12 % ID/g.

Question: What about the “Biodistribution: Heart” value ([3]; 120 min post injection) of the same compound?
Answer: Its value is 0.71 ± 0.12 % ID/g.

Question: What about the “Biodistribution: Kidney” value ([3]; 120 min post injection) of the same compound?
Answer: Its value is 1.94 ± 0.29 % ID/g.

Question: What about the “Biodistribution: Liver” value ([3]; 120 min post injection) of the same compound?
Answer: The value was 5.59 ± 0.39 % ID/g.

Question: What about the “Biodistribution: Lung” value ([3]; 120 min post injection) of the same compound?
Answer: Its value is 0.71 ± 0.09 % ID/g.

Question: And the “Biodistribution: Muscle” value ([3]; 120 min post injection)?
Answer: Its value is 0.55 ± 0.21 % ID/g.

Question: And the “Biodistribution: Pancreas” value ([3]; 120 min post injection)?
Answer: The value was 0.98 ± 0.10 % ID/g.

Question: What about the “Biodistribution: Spleen” value ([3]; 120 min post injection) of the same compound?
Answer: The value was 0.47 ± 0.04 % ID/g.

Question: And the “crossing of the blood brain barrier” value ([3]; judged from brain uptake at 5 min)?
Answer: Its value is “can cross the blood brain barrier and enter the brain”.

Question: What about the defluorination ([3]; judged from increasing bone uptake in the mice) of the same compound?
Answer: Its defluorination is “strong defluorination”.

Question: Which results are given for `COCOc1ccc2nc(/C=C/c3ccnc(OC)c3)ccc2c1` [TZ-36-144]?
Answer: Ki (α-synuclein fibrils [1]; [4]): 42 nM; Ki (α-synuclein fibrils [1]; [5]): 42 nM; EC50 (α-synuclein fibrils [1]; [6]): 110 nM; EC50 (α-synuclein fibrils [1]; [7]): 110 nM; EC50 (α-synuclein fibrils [2]; [8]): 110 nM; Ki (α-synuclein fibrils [2]; [9]): 42 nM; EC50 (α-synuclein fibrils [2]; [10]): 110 nM; Ki (α-synuclein fibrils [2]; [11]): 42 nM
